Source: paper PMC9605374 (Marine Drugs, 2022)
pIC50: −log10 of the molar value.

What was measured:
[1] = test system: various pathogenic bacteria; design: method as in PMID 26039736; conditions: cited from earlier work
22Rv1 [2] = experiment: Colony formation assay; format: cell-based, human; conditions: 22Rv1, 48 h treatment then 14 days, nanomolar concentrations
Description: (§1) Next, we investigated the effect of NB on the ability of cancer cells to form colonies from single cells using a colony formation assay and a preplating mode. […] However, this speculation awaits further confirmation in vivo.
(§2) Figure 3 Colony formation assay. The human cancer cells were seeded in 6-well plates and treated for 48 h with the indicated concentrations of NB. Then, the media was exchanged, and the plates were incubated for 14 days, which was followed by fixation, staining, and counting. Number of replicates n = 3. Statistical significance: * p < 0.05 (ANOVA).

VCaP = experiment: Colony formation assay; format: cell-based, human; conditions: 48 h treatment then 14 days, nanomolar concentrations
Description: as §1, §2

PC3 = experiment: Colony formation assay; format: cell-based, human; conditions: PC3, 48 h treatment then 14 days, nanomolar concentrations
Description: as §1, §2

[3] = target: p-glycoprotein (p-gp, MDR1) in PC3-DR cells (Homo sapiens, UniProt P08183); experiment: Calcein-AM exclusion assay, p-glycoprotein activity
p-glycoprotein (p-gp, MDR1) in PC3-DR cells, sequence (P08183 whole entry): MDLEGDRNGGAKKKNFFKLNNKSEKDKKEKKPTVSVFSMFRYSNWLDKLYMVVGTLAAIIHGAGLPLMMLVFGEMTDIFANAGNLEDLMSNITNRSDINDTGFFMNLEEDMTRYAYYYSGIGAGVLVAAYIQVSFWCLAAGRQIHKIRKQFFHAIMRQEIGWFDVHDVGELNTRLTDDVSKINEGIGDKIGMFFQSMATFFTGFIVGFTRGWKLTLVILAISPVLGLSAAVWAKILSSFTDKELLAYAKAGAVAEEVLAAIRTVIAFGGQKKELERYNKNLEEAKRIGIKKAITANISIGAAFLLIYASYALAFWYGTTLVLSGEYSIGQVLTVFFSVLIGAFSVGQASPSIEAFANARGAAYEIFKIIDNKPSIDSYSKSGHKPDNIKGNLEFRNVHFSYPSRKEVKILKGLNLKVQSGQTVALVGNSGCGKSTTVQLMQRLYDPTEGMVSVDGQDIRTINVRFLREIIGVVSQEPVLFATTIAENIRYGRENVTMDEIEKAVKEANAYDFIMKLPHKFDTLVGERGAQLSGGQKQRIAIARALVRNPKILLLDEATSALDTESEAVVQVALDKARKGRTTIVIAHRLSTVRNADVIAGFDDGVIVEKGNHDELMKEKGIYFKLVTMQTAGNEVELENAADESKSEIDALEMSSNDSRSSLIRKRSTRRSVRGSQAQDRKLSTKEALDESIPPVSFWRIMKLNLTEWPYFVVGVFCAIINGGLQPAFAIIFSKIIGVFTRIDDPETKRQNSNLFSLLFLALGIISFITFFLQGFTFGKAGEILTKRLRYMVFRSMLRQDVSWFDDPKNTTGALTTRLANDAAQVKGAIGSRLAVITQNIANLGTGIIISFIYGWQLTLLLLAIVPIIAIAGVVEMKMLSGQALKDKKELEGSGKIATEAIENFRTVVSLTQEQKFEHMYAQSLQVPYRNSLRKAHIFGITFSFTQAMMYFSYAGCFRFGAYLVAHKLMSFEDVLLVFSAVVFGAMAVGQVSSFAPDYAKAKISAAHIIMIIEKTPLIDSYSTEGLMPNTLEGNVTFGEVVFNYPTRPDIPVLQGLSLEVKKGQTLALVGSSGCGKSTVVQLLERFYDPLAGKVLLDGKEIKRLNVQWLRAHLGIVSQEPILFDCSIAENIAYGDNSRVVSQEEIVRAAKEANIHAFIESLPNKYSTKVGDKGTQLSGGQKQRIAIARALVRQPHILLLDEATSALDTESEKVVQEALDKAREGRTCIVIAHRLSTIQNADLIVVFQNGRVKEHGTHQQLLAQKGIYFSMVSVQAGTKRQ

LNCaP = test system: LNCaP; design: method as in PMID 27355960; conditions: cited from earlier work
22Rv1 [4] = test system: 22Rv1; design: method as in PMID 27355960; conditions: cited from earlier work
caspase-3 in 22Rv1 cells = experiment: Western blotting, caspase-3 cleavage; format: cell-based, human; conditions: 22Rv1, 48 h after drug exposure
Description: (§3) We examined several time points, specifically, 15 min, 2 h, and 48 h (Figure 6).
(§4) Figure 6 Validation of kinome analysis data. 22Rv1 cells were treated with 1 µM or 10 µM of NB for the indicated time. The protein expression was analyzed by Western blotting using total protein load equal to 30 µg/slot. α-Tubulin was used as a loading control.
(§5) The Western blot assay was executed as previously described: 1 × 10^6 cells were seeded in Petri dishes (ø 6 cm, 5 mL/dish) and incubated overnight. On the next day, the cells were treated with the compounds in fresh culture media (5 mL/dish) for the indicated time. Next, cells were harvested with a cell scraper and lysed in lysis buffer including protease and phosphatase inhibitors cocktail (Roche, Mannheim, Germany). Cell debris were removed from the protein lysates via centrifugation. Afterwards, the cell-free protein mixtures were separated in gradient ready-made Mini-PROTEAN® TGX Stain-Free^TM gels (Bio-Rad, Hercules, CA, USA) using SDS-PAGE (sodium dodecylsulfate polyacrylamide gel electrophoresis). Then, the proteins were blotted onto ø 0.2 µm pore PVDF membrane. The membrane was blocked and consequently treated with primary and secondary antibodies for protein detection. The signals were detected using the ECL chemiluminescence system (Thermo Scientific, Rockford, IL, USA).

p-gp in PC3-DR cells = experiment: Western blotting, p-gp expression; format: cell-based, human; conditions: 48 h, up to 6 µM
Description: Number of replicates n = 3. […] Viability was measured using an MTT assay. Number of replicates n = 3.
It is important to note that a reduction in p-gp activity could be conditioned by p-gp degradation or cell death-related processes. Consequently, using a Western blotting analysis, we measured p-gp expressional levels in the treated PC3-DR cells. […] Thus, the observed effect on p-gp activity seems to be exclusively related to the interaction of NB with p-gp rather than result from any cell death-related events.
as §5, with “The membrane was blocked and consequently treated with primary and secondary antibodies for protein detection.” left out

JNK1/2 in 22Rv1 cells = experiment: Western blotting, MAPK activation; format: cell-based, human; conditions: 22Rv1, 1 µM or 10 µM
Description: as §3, §4, §5

ERK1/2 in 22Rv1 cells = experiment: Western blotting, MAPK activation; format: cell-based, human; conditions: 22Rv1, 1 µM or 10 µM
Description: as §3, §4, §5

p38 in 22Rv1 cells = experiment: Western blotting, MAPK activation; format: cell-based, human; conditions: 22Rv1, 1 µM or 10 µM, 2 h
Description: as §3, §4, §5

PC3-DR cells = experiment: Drug combination study NB with docetaxel, MTT assay, SynergyFinder 2.0; format: cell-based; conditions: Homo sapiens, 24 h
Description: Thus, drug-resistant PC3-DR cells were treated with docetaxel in combination with NB (Figure 9). Potential synergism between NB and docetaxel was measured by the Chou–Talalay method as described before.
Figure 9 Combinational treatment on PC3-DR cells with NB and docetaxel. […] MTT assay was used to examine cellular viability. Number of replicates n = 3. (A) The heatmap represents cytotoxicity (viability inhibition) of the individual drugs or their combinations. (B,C) To calculate and visualize in 2D (B) or 3D (C) the effect of the drug combination (synergism/additive effect/antagonism), the SynergyFinder v. 2.0 software (Network Pharmacology for Precision Medicine in the Research Program of System Oncology, Faculty of Medicine at University of Helsinki, Helsinki, Finland) and a ZIP reference model were used. Green regions indicate antagonism, white regions refer to additive effect, and red regions indicate synergism.
The experiments were carried out as previously reported. […] 22Rv1 cells (6 × 10^3 cells/well in 96-well plates) were simultaneously treated with NB and docetaxel; or pretreated with MAPK inhibitors for 1 h following treatment with NB in the total media volume of 100 µL/well. Following 24 h of incubation, the viability of the cells treated with individual drugs as well as their combinations was determined using MTT assay. […] Red areas (positive δ-values) and green areas (negative δ-values) indicate synergism and antagonism, respectively.

## COc1ccc(C2SSC34CC5(O)C(Cl)C=CC(O)C5ON3C(=O)C2N(C)C4=O)c(O)c1OC (stereo not drawn) [NB, N-methylpretrichodermamide B]
[1]
  MIC: 8–32 µm/mL
22Rv1 [2]
  colony-formation ability: inhibit the colony-formation ability
VCaP
  colony-formation ability: inhibit the colony-formation ability
PC3
  colony-formation ability: inhibit the colony-formation ability
[3]; 30 min exposure, nanomolar concentrations, dose-dependent
  calcein accumulation (green fluorescence), p-gp inhibition: significantly increased the green fluorescence
[3]; calcein-AM, noncytotoxic concentration
  concentration at which an inhibitory effect on p-gp activity was already detected: 312.5 nM
LNCaP
  pIC50: 5.75
22Rv1 [4]
  pIC50: 6.29
caspase-3 in 22Rv1 cells
  caspase-3 cleavage: caspase-3 cleavage that was observed
p-gp in PC3-DR cells
  p-gp expression: no significant changes in p-gp expression
JNK1/2 in 22Rv1 cells; 2 h
  JNK1/2 phosphorylation: pronounced JNK1/2 phosphorylation
JNK1/2 in 22Rv1 cells; 48 h
  JNK1/2 phosphorylation: no phosphorylation (or even slight downregulation)
ERK1/2 in 22Rv1 cells
  activation of ERK1/2: no activation
p38 in 22Rv1 cells
  activation of p38: activation of p38
PC3-DR cells
  inhibition at 0.22 µM: 9.85%
  inhibition at 0.67 µM: 15.5%
  inhibition at 2 µM: 14.3%
  inhibition at 6 µM: 17.2%
